We go through 14 compounds from US4734416A, “Pharmaceutically useful carbostyril derivatives” (Otsuka Pharmaceutical Co., Ltd., priority 1978, dated 1988).

The nature of series [1]: Halothane anesthesia increasing activity (righting reflex). It counts as in vivo, mouse (male, ddy-strain). The conditions noted are these: oral; for Time (minutes) between introduction of anesthesia and waking: 8 mg/kg, 1 hour before 4% Halothane. As for the experimental part: Male mice of ddy-strain having about 20 g body weight are used. One test group consists of 10 mice. An aqueous Gummi Arabicum suspension of test compound (80 mg of a compound to be tested and 1 g of Gummi Arabicum/100 ml of physiological NaCl solution) is administered orally to each mouse at the dosage of 8 mg of test compound/kg body. One hour after the administration, each mouse is placed in a gas respiration chamber (13×13×24 cm) and oxygen gas containing 4% of Halothane [2-bromo-2-chloro-1,1,1-trifluoroethane] is blown into the chamber at the velocity of 2 l/min for 3 minutes. A mouse anaesthetized is taken out from the chamber and the time between the introduction of anesthesia to waking is measured by righting reflex as the index. To mice of the control group, 1% Gummi Arabicum aqueous physiological solution is orally administered at the dosage of 0.1 ml/10 g body. [Reference: M. J. Turnbull and J. W. Watkins: Br. J. Pharmac., 58, 27-35 (1976)]
Same procedures as mentioned in (II)-(A) are employed, except that the amount of test compound to be orally administered is changed in 4 steps at the dosage of 0.5 mg/kg, 1 mg/kg, 2 mg/kg and 4 mg/kg respectively to measure the relationship between the dosage and degree of strength of anesthesia increasing activity.

In series [2] the target is T1, enucleated ileum of a guinea pig (Cavia porcellus, UniProt P31389).
T1 construct: the tissue of ileum is cut to a length of 2.5 to 3.0 cm and suspended in an organ bath; from tissue; host or cells: isolated ileum from the ileocecal region of male guinea pig
T1 sequence (P31389 whole entry): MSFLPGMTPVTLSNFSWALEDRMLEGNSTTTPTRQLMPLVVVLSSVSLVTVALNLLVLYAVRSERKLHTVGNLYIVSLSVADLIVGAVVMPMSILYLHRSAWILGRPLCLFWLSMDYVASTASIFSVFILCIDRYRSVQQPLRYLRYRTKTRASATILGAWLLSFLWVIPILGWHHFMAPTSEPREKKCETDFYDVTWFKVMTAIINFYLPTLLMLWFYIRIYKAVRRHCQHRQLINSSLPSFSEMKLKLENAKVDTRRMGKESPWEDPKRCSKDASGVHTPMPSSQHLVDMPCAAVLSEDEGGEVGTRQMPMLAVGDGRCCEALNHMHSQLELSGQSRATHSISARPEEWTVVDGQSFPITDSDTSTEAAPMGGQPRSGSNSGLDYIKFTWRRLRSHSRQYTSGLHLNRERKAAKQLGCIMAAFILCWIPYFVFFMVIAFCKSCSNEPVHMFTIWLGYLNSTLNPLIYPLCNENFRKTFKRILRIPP
Put plainly: Antihistamine activity test in vitro (enucleated guinea pig ileum, histamine retraction, pA2 by Van Rossam method). The conditions noted are these: 10^-6 g/ml test compound, 5 minutes before histamine, 36° C. As for the experimental part:
As to the test method for determining antihistamine activity of a compound in vitro, a method of using an enucleated ileum of a guinea pig is generally accepted.
A male guinea pig having 300 to 500 g body weight is killed by blood letting. An ileum having a length of 15 cm being enculeated from the ileocecal region is dipped into Tyrode's solution (which is prepared from […], 0.2 g of KCl, 0.2 g of CaCl2, 1.0 g of glucose, 1.0 g of NaHCO3, 0.065 g of NaHPO4.2H2 O and 0.2135 g of MgCl2.6H2 O to make 1000 ml in total volume by adding water). Then the tissue of ileum is cut to a length of 2.5 to 3.0 cm and suspended in an organ bath filled with 30 ml of Tyrode's solution. The organ bath is kept at a temperature of 36° C. and a mixed gas consisting of 5% of CO2 and 95% of O2 is blown into the bath. 10 Minutes after the blowing, 10^-6 M of histamine is added to the bath to examine the sensitivity of the tissue and a reaction curve (control) with respect to the dosage of histamine is obtained. After the dosage of histamine-reaction curve (control) becomes constant, 10^-6 g/ml of a compound to be tested is added to the bath and further histamine is added 5 minutes later to obtain a dosage-reaction curve. Retraction of the ileum is recorded on a pen-recorder through an isotonic transducer [TD-112S manufactured by Nihon Koden]. Antihistamine activity of the test compound is determined as pA2 value by the "Van Rossam" method [J. M. Van Rossam; Arch. Inst. Pharmacodyn., 143, 299 (1963)] wherein the maximum retraction of ileum caused by histamine shown in the control curve is 100%.

Series [3] is described as follows: Activity for inhibiting fighting behavior of mouse isolated singly for a long period of time. It counts as in vivo, mouse (male, ddy-strain). The conditions noted are these: positive if fighting no longer than 5 seconds in a minute, range in parentheses, read-out: ED50 (inhibition of fighting behavior). As for the experimental part: Individual male mice of ddy-strain having 15 to 20 g of body weight are breeded separately in respective cages for 1 month. One test group consists of 10 pairs of mice. The pairs of mice are selected so that when one mouse is taken into the home cage of another, the two mice fight together continuously for over 30 seconds. ED50 values are calculated by administering the respective test compounds to each test groups of mice. Activity for inhibiting fighting behavior of the test compound is determined as positive in case the administered mice only continue the fighting for no longer than 5 seconds in a minute. When the mice continue the fighting over 5 seconds they are forced to separate for the purpose of reducing the number of injured mice. [Reference: C. Y. Yen, R. L. Stanger and N. Millman: Arch. Int. Pharmacodyn., 123, 179 (1959)]

The next series is described as follows: in vivo. To be noted: mouse. As for the experimental part: Mice of ddy-strain having 20-22 g of body weight are used. One test group consists of 10 mice.
Oral administration: Compound to be tested is suspended in 1% Gummi Arabicum physiological NaCl aqueous solution.
Intravenuous administration: Compound to be tested is dissolved in 50% propyleneglycol aqueous solution.

Series [4] in a line: Hexabarbital sleep increasing activity (righting reflex). The class given is in vivo, mouse (male, ddy-strain). To be noted: oral, Hexabarbital Na 70 mg/kg i.p. As for the experimental part:
Male mice of ddy-strain having 20 to 25 g body weight are starved for 24 hours. One test group consists of 10 mice. An aqueous Gummi Arabicum suspension of test compound (0.05 g of test compound and 1 g of Gummi Arabicum/100 ml of physiological NaCl solution) is administered orally at the dosage mentioned in the Table 4. One hour after the administration 0.7% of Hexabarbitol.Na-salt is intraperitonerally administered at the dosage of 70 mg/kg body weight. The time between the introduction of sleep to waking is measured by righting reflex as the index. [Reference: A. M. Hjort, De E. J. Beer and D. W. Fassett; J. Pharmac., Exptl.

Each structure is given as a SMILES string. Counter-ions that a name gives are not always drawn.

Take `CN1C(=O)CCc2c(OCCCN3CCN(c4ccccc4)CC3)cccc21` [Compound 9, 1-Methyl-5-[3-(4-phenylpiperazinyl)propoxy]-3,4-dihydrocarbostyril monohydrochloride]: the “Time (minutes) between introduction of anesthesia and waking” value (shortened to “Time (minutes) between introduction”) in series [1] is 9.5 ± 3.2 min. In addition, the Kb in series [2] was 0.0263 nM. In series [3], the median effective dose (ED50) (as a rule, the dose that gives a 50% effect, or the effect in half of the subjects) was 1.52 mg/kg.

As for `CN1C(=O)CCc2c(OCC(O)CN3CCN(c4ccccc4)CC3)cccc21` (stereo not shown) [Compound 7, 1-Methyl-5-[2-hydroxy-3-(4-phenylpiperazinyl)propoxy]-3,4-dihydrocarbostyril monohydrochloride], the LD50 – broadly, the dose expected to kill half of the subjects tested – in the series “in vivo” (iv, female mice) was determined as 432 mg/kg; in “in vivo” (iv, male mice) it was 424 mg/kg; in the series “in vivo” (po, female mice) it was 1650 mg/kg; in “in vivo” (po, male mice), 1600 mg/kg. Besides, the “Anesthesia increasing activity” value amounted to 5.3 ± 2.5 min in series [1] (0.5 mg/kg), 7.4 ± 3.1 min in series [1] (1 mg/kg), 9.5 ± 3.8 min in series [1] (2 mg/kg) and 13.7 ± 4.7 min in series [1] (4 mg/kg). In series [1], the “Time (minutes) between introduction” value was 8.9 ± 2.4 min. Also, the Kb in series [2] was 0.132 nM.

Consider `COc1ccccc1N1CCN(CCCOc2ccc3c(c2)NC(=O)CC3)CC1` [Compound 17, 7-{3-[4-(2-Methoxyphenyl)piperazinyl]propoxy}-3,4-dihydrocarbostyril], for which the LD50 is 216 mg/kg in “in vivo” (iv, female mice); 218 mg/kg in the series “in vivo” (iv, male mice); 860 mg/kg in “in vivo” (po, female mice); 898 mg/kg in “in vivo” (po, male mice). For the same compound, the “Time (minutes) between introduction” value in series [1] stood at 13.6 ± 5.2 min. In addition, the “Sleep time (min.) [Mean ± SD]” value in series [4] (0.125 mg/kg) was 39.51 ± 8.45 min; in series [4] (0.25 mg/kg), 45.57 ± 10.05 min; in series [4] (0.5 mg/kg) it was 51.77 ± 6.60 min; in series [4] (1.0 mg/kg), 56.92 ± 6.13 min. The Kb in series [2] was 0.871 nM. Besides, the ED50 in series [3] was 0.92 mg/kg.

For `CN1C(=O)CN=C(c2ccccc2)c2cc(Cl)ccc21` [Diazepam, reference compound], the ED50 in series [3] is 7.29 mg/kg.

For `O=C1CCc2ccc(OCCCN3CCN(c4cccc(Cl)c4)CC3)cc2N1` [Compound 39, 7-{3-[4-(3-Chlorophenyl)piperazinyl]propoxy}-3,4-dihydrocarbostyril], the LD50 in the series “in vivo” (iv, female mice) worked out at 293 mg/kg; in the series “in vivo” (iv, male mice), 310 mg/kg; in the series “in vivo” (po, female mice), 1100 mg/kg; in the series “in vivo” (po, male mice), 1210 mg/kg. The “Time (minutes) between introduction” value in series [1] amounted to 5.0 ± 2.9 min. In addition, the Kb in series [2] is 0.182 nM. Moreover, the median effective dose (ED50) in series [3] amounted to 0.96 mg/kg.

For `O=C1CCc2c(cccc2OCCCN2CCN(c3ccccc3)CC2)N1` [Compound 5, 5-[3-(4-Phenylpiperazinyl)propoxy]-3,4-dihydrocarbostyril dihydrochloride], the “Anesthesia increasing activity” value in series [1] (0.5 mg/kg) is 5.2 ± 2.1 min; in series [1] (1 mg/kg), 8.5 ± 3.5 min; in series [1] (2 mg/kg), 9.6 ± 4.1 min; in series [1] (4 mg/kg), 12.7 ± 3.9 min. The “Time (minutes) between introduction” value in series [1] worked out at 16.9 ± 7.9 min. The compound further showed a Kb in series [2] of 1.35 nM. The ED50 in series [3] was found to be 1.28 mg/kg.

For the compound `CC(=O)OCCN1CCN(CCCOc2ccc3c(c2)NC(=O)CC3)CC1` [Compound 32, 7-{3-[4-(2-Acetyloxyethyl)piperazinyl]propoxy}-3,4-dihydrocarbostyril], the “Time (minutes) between introduction” value in series [1] came out at 7.9 ± 3.1 min. The same compound gave a Kb in series [2] of 30.2 nM.

`O=C1CCc2ccc(OCCCN3CCN(c4ccc(Cl)cc4)CC3)cc2N1` [Compound 16, 7-{3-[4-(4-Chlorophenyl)piperazinyl]propoxy}-3,4-dihydrocarbostyril]: in series [1], the “Time (minutes) between introduction” value turned out to be 11.4 ± 5.6 min. This compound showed a Kb in series [2] of 0.234 nM.

As for `O=c1cc(OCCCN2CCN(c3ccccc3)CC2)c2ccccc2[nH]1` [Compound 26, 4-[3-(4-Phenylpiperazinyl)propoxy]carbostyril], in series [1], the “Time (minutes) between introduction” value was 8.5 ± 3.7 min. Further, the Kb in series [2] is 2.19 nM.

As to `O=C1CCc2c(OCC(O)CN3CCN(c4ccc(Cl)cc4)CC3)ccc(Cl)c2N1` (stereo not shown) [Compound 3, 8-Chloro-5-{2-hydroxy-3-[4-(4-chlorophenyl)piperazinyl]propoxy}-3,4-dihydrocarbostyril monohydrochloride], the “Time (minutes) between introduction” value in series [1] stood at 7.9 ± 3.4 min. Further, in series [2], the Kb is 4.9 nM.

Turning to `O=C1CCc2c(c(Cl)cc(Cl)c2OCC(O)CN2CCN(c3ccccc3)CC2)N1` (stereo not shown) [Compound 4, 6,8-Dichloro-5-[2-hydroxy-3-(4-phenylpiperazinyl)propoxy]-3,4-dihydrocarbostyril monohydrochloride], in series [1], the “Time (minutes) between introduction” value was 7.4 ± 2.7 min. Besides, the Kb in series [2] is 1.12 nM.

Regarding `CC1CN(CCCOc2ccc3c(c2)NC(=O)CC3)CCN1c1ccc(Cl)cc1` (stereo not shown) [Compound 18, 7-{3-[3-Methyl-4-(4-chlorophenyl)piperazinyl]propoxy}-3,4-dihydrocarbostyril dihydrochloride], the “Time (minutes) between introduction” value in series [1] stood at 8.4 ± 2.5 min. In series [2], this compound gave a Kb of 2.19 nM.

With `CC(=O)N1CCN(CCCOc2ccc3c(c2)NC(=O)CC3)CC1` [Compound 34, 7-[3-(4-Acetylpiperazinyl)propoxy]-3,4-dihydrocarbostyril], in series [1], the “Time (minutes) between introduction” value is 7.8 ± 3.4 min. Further, the Kb in series [2] was 57.5 nM.

As for `O=c1ccc2cc(OCCCN3CCN(c4ccccc4)CC3)ccc2[nH]1` [Compound 36, 6-[3-(4-Phenylpiperazinyl)propoxy]carbostyril], in series [1], the “Time (minutes) between introduction” value was found to be 15.3 ± 3.1 min. In series [2], this compound had a Kb of 10.2 nM.
